Source: patent US20040037897A1, “Treatment of drug resistant organisms” (priority 2000, published 2004)

System: Staphylococcus aureus organisms
Assay: In vitro tests of susceptibility to NO
Type: cell-based

Compound: [N]=O [NO, Nitric oxide]
- susceptibility to NO: susceptible
